Earlier results in patent US20190374552A1, “MULTIFUNCTIONAL FORMULATIONS AND METHODS TO CONTROL DERMATITIS AND PRURITUS” (priority 2016, published 2019).
Entries after “also recorded” stand apart in the source; their conditions may differ. One block for each compound: values may come before it.

Experiments:
[1] = target: T1, TRPA1 (Homo sapiens, UniProt O75762)
Target sequence in this assay (O75762 whole entry): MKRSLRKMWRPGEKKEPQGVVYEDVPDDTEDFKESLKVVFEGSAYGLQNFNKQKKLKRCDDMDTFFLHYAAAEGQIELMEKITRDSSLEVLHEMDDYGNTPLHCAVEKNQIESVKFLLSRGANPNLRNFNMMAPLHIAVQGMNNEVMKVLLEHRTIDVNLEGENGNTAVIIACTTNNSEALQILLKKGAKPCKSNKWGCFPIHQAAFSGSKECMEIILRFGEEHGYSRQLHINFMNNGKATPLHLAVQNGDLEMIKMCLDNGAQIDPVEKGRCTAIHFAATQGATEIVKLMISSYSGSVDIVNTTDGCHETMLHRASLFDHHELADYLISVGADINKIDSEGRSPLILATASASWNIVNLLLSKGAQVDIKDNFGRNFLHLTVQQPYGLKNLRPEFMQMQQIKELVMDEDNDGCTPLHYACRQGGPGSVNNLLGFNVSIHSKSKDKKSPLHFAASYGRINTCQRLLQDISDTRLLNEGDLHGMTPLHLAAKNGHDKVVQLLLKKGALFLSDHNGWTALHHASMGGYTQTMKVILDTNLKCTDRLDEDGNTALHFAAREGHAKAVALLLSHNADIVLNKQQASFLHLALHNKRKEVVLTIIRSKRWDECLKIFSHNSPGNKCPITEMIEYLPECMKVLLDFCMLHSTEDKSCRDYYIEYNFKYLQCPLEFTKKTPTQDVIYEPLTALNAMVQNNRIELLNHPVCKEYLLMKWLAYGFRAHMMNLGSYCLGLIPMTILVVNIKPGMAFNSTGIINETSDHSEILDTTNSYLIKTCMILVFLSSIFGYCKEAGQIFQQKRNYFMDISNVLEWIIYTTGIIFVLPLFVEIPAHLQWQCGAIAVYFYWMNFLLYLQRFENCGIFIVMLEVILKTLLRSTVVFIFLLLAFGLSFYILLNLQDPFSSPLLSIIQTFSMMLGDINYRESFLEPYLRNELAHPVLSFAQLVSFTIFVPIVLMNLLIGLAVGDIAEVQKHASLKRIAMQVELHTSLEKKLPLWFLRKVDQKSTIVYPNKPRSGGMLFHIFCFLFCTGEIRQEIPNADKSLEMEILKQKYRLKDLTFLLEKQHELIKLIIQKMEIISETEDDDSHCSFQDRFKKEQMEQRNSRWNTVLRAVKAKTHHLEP

[2] = target: human TRPM8 (hTRPM8) (Homo sapiens, UniProt Q7Z2W7)
[3] = target: T2, TRPV1 (Homo sapiens, UniProt Q8NER1)
Target sequence in this assay (Q8NER1 whole entry): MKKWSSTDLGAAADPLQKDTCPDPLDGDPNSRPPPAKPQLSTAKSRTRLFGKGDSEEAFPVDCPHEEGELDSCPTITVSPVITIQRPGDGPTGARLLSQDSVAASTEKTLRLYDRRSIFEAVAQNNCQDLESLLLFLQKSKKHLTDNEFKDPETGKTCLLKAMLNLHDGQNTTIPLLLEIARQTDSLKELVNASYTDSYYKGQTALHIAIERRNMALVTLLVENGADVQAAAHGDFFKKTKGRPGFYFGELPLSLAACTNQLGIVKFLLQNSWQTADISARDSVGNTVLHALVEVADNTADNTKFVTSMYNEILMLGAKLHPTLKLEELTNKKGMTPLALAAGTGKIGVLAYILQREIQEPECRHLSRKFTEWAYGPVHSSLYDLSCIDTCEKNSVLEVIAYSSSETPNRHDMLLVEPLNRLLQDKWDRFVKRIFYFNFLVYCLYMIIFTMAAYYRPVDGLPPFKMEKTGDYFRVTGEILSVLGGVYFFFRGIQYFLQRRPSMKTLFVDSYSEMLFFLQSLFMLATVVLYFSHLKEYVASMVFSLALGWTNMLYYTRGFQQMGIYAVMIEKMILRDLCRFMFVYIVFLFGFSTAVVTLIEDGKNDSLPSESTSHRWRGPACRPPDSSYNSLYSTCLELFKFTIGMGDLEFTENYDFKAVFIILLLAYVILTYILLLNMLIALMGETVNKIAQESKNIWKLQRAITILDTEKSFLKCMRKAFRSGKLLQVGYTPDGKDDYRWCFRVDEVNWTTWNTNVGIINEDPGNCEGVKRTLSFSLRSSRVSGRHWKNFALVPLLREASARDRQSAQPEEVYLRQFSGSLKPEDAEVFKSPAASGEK

[4] = target: T3, hTRPV2 (Homo sapiens, UniProt Q9Y5S1)
T3 sequence (Q9Y5S1 1-764): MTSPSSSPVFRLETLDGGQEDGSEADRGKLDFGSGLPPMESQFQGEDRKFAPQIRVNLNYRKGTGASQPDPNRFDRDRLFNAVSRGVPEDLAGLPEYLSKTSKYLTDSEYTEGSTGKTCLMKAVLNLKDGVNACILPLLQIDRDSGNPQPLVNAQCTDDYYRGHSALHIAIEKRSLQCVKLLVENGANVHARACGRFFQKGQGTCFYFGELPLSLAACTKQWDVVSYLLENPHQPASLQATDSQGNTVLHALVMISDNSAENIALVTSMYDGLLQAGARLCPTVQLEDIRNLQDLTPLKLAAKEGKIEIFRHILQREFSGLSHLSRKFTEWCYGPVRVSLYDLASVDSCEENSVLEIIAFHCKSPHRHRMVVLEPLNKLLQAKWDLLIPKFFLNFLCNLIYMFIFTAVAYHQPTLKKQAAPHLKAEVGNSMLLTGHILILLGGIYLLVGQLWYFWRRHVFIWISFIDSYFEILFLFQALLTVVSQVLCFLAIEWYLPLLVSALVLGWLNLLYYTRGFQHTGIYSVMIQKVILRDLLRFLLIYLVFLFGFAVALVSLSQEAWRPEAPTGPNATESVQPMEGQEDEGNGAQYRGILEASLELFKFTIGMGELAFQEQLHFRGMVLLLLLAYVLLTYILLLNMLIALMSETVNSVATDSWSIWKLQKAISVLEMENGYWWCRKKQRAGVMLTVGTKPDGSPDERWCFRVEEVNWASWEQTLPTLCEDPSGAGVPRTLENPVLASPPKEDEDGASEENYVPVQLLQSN

[5] = system: stimulated lymphocytes
[6] = system: histaminergic itch; conditions: topical application, human trials
[7] = target: T2, TRPV1; remark: listed apart in the source
Target sequence in this assay (Q8NER1 whole entry, species assumed): as the sequence (Q8NER1 whole entry) above

[8] = target: T1, TRPA1; remark: listed apart in the source
Target sequence in this assay (O75762 whole entry, species assumed): as the sequence (O75762 whole entry) above

[9] = target: TRPM8 (Homo sapiens, UniProt Q7Z2W7)
[10] = system: TRPV1
[11] = system: pain and itch responses; conditions: mice
[12] = target: TRPV1 (Rattus norvegicus, UniProt O35433); conditions: compared with docosahexaenoic acid
[13] = target: T1, TRPA1; conditions: for inhibition of hTRPA1 activation by menthol and allyl isothiocyanate: compound at 1 mM, menthol 1 mM, allyl isothiocyanate 10 uM
Target sequence in this assay (O75762 whole entry): as above

[14] = system: scratching behavior ACD; conditions: mice exposed to haptens oxazolone and urushiol
[15] = target: T1, TRPA1; remark: listed apart in the source
Target sequence in this assay (O75762 whole entry, species assumed): as the sequence (O75762 whole entry) above

[16] = target: T2, TRPV1; remark: listed apart in the source
Target sequence in this assay (Q8NER1 whole entry, species assumed): as the sequence (Q8NER1 whole entry) above

[17] = system: leukocyte migration; conditions: induced by injection of carrageenan
[18] = system: TNF-a and IL-6

human TRPM8 (hTRPM8), sequence (Q7Z2W7 whole entry): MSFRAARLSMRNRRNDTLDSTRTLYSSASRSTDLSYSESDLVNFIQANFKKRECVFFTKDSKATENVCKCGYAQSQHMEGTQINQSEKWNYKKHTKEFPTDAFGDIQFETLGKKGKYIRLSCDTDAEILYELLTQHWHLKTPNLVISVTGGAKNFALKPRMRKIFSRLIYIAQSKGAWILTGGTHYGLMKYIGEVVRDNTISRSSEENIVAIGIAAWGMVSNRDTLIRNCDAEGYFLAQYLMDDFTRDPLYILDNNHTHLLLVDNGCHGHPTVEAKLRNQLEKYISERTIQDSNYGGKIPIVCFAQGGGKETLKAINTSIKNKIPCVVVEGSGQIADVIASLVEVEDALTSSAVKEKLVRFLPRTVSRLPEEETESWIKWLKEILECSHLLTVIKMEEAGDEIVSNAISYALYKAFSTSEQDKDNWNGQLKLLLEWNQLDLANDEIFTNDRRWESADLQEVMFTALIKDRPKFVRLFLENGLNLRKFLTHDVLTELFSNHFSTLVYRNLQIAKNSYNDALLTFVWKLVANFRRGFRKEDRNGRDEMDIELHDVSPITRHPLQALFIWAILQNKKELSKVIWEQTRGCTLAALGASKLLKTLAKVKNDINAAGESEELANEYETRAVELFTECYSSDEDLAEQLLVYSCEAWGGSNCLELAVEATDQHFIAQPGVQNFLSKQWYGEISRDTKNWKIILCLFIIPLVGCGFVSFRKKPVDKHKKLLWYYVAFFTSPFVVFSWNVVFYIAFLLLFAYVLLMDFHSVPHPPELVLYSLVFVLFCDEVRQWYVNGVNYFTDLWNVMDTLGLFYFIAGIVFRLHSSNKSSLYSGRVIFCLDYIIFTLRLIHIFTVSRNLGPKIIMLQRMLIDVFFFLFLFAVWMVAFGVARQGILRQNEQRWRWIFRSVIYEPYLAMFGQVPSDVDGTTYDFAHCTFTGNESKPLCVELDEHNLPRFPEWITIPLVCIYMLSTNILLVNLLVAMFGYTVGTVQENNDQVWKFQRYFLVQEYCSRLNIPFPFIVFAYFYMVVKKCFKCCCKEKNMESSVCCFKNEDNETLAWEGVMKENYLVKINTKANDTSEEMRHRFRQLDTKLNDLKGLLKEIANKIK
TRPM8, sequence (Q7Z2W7 whole entry, species assumed): as the sequence (Q7Z2W7 whole entry) above
TRPV1 (Rattus norvegicus, UniProt O35433), sequence (O35433 whole entry): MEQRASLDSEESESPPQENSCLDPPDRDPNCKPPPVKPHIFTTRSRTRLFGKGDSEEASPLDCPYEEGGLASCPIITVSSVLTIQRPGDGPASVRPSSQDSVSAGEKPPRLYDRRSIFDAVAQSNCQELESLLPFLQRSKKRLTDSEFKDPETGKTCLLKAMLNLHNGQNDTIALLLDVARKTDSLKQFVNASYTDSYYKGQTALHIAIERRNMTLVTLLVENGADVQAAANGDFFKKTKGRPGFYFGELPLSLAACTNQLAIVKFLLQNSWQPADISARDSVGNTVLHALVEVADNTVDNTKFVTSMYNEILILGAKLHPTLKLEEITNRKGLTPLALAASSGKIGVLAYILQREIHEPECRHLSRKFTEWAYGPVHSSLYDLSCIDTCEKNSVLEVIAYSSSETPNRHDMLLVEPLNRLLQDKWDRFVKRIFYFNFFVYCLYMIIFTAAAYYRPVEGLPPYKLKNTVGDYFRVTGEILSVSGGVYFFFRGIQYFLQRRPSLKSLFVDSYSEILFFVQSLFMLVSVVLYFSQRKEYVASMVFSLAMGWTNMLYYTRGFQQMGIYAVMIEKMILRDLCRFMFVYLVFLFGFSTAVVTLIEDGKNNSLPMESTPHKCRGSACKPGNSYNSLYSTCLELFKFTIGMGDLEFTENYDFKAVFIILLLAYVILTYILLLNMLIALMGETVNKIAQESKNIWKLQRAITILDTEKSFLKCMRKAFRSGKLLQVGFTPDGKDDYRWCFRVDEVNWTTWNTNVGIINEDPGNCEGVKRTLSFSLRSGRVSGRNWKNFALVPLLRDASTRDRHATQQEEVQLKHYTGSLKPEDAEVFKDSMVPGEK

activation of hTRPA1 [1]: did not activate | activation of hTRPM8 [2]: activates | activation of hTRPV1 [3]: did not activate | activation of hTRPV2 [4]: did not activate
Compound: CC12CCC(CC1)C(C)(C)O2 [1,8-cineole]
release of IL-I β, IL-4, IL-5 and TNF-a [5]: decreased

activation of hTRPA1 [1]: did not activate
Compound: CC12CCC(CC1=O)C2(C)C (stereo not shown) [camphor]

Compound: CC1CCC(C(C)C)C(O)C1 (stereo not shown) [Example 1-menthol, 1-menthol]
activation of hTRPA1 [1]: activated | activation of hTRPM8 [2]: activation | effect on histaminergic / experimentally induced itch [6]: significant inhibitory effects; also recorded: significant and pronounced anti-pruritic effect; also recorded: relieved

TRPV1 channel activity [7]: inhibits | TRPA1 channel function [8]: not affected | TRPM8 channel function [9]: not affected
Compound: Hyaluronan [HA]

Compound: CCCCCCCC/C=C\CCCCCCCC(=O)O [oleic acid]
TRPV1 activity [10]: inhibited | pain and itch responses [11]: inhibited

Compound: CC/C=C\C/C=C\C/C=C\CCCCCCCC(=O)O [a-linolenic acid]
TRPV1 inhibition [12]: markedly more effective inhibitors

activation of hTRPA1 [1]: did not activate
Compound: O=C1CC2CC[C@H]1C2 [norcamphor]

Compound: CC1(C)[C@@H]2CC[C@@]1(C)[C@](C)(O)C2 [2-methylosoborneol]
IC50 ([13]; TRPA1 activation by 20 uM AITC, read-out: IC-50 concentration, inactivation of TRPA1 activation): 120 µM | inhibition of hTRPA1 activation by menthol and allyl isothiocyanate [13]: completely inhibited | activation of hTRPA1 [1]: did not activate

inhibition of hTRPA1 activation by menthol and allyl isothiocyanate [13]: completely inhibited | activation of hTRPA1 [1]: did not activate
Compound: CC12CCC(C1)C(C)(C)C2O (stereo not shown) [fenchyl alcohol]

Compound: CC(C)c1ccc(NC(=O)Cn2cnc3c2c(=O)n(C)c(=O)n3C)cc1 [HC-030031]
scratching behavior [14]: inhibition of scratching

block of TRPA1 agonist AITC [15]: blocked | block of TRPV1 agonist capsaicin [16]: blocked
Compound: O=C(CCCCC1CCSS1)NCCC(=O)NC(Cc1cnc[nH]1)C(=O)O (stereo not shown) [ADM 09]

inhibition of hTRPA1 activation by menthol and allyl isothiocyanate [13]: completely inhibited | activation of hTRPA1 [1]: did not activate
Compound: CC1(C)C2CCC1(C)C(O)C2 (stereo not shown) [borneol]
leukocyte migration [17]: reduce | inhibition of TNF-a and IL-6 [18]: inhibits
